{"source": "patent EP4257135A1", "about": "“BENZIMIDAZOLE DERIVATIVES FOR PULMONARY ARTERIAL HYPERTENSION” (Justus-Liebig-Universität Gießen, priority 2022, dated 2023)", "key": {"[1]": {"system": "PAH-SMCs", "assay": "Hyperproliferative phenotype of PAH smooth muscle cells", "type": "cell-based, human", "conditions": "vs DMSO", "text": "(§1) PAH-FBs wurden mit verschiedenen Konzentrationen der Substanz SGC-CBP30 oder dem Lösungsmittel DMSO inkubiert, um die Zellproliferation und die Induktion von Apoptose 24 Stunden danach zu untersuchen. Die Wirkung der selektiven EP300/CREBBP-Inhibition auf die Zellproliferation wurde durch den Einbau von BrdU (Bromodeoxyuridin, 5-Bromo-2'-Deoxyuridin, BUdR, BrdUrd, Broxuridine) bewertet. Die Wirkung der Substanz SGC-CBP30 oder des Lösungsmittels DMSO auf die Induktion von Apoptose wurde durch Cell Death Detection ELISAPLUS bewertet. Dabei zeigten sich deutliche Unterschiede zwischen der Substanz SGC-CBP30 und dem Lösungsmittel DMSO.\n(§2) Das therapeutische Potenzial der EP300/CREBBP-Hemmung durch die Substanz SGC-CBP30 wurde untersucht. Dazu wurde die Wirksamkeit auf PAH-FBs und PAH-SMCs geprüft, die aus den Lungenarterien von menschlichen PAH-Patienten und aus den Lungenarterien von Ratten mit MCT-PAH (Rattenmodell mit Monocrotalin) isoliert wurden. […] Die Wirkung der EP300-Hemmung auf das vaskuläre Remodelling wurde durch Quantifizierung der prozentualen medialen Wanddicke in den mit der Substanz SGC-CBP30 inkubierten PCLS im Vergleich zu den mit DMSO inkubierten Kontrollen bewertet. Dabei zeigten sich deutliche Unterschiede zwischen der Substanz SGC-CBP30 und DMSO."}, "[2]": {"system": "PAH-SMCs", "assay": "Apoptosis in PAH smooth muscle cells", "type": "cell-based, human", "conditions": "vs DMSO", "text": "as §1, §2"}, "[3]": {"system": "FHR-PAH", "assay": "Fawn-hooded hypertensive rat model of established PAH, right heart catheterisation and histology", "type": "in vivo, Ratten", "conditions": "FHR-PAH rats, three times weekly for two weeks", "text": "(§3) Um das therapeutische Potenzial der EP300/CREBBP-Hemmung in vivo weiter zu erforschen, haben die Erfinder Versuchstiere in drei verschiedenen Nagetiermodellen mit etablierter PAH mit der Substanz SGC-CBP30 behandelt, wobei SGC-CBP30 durch intra-tracheale Vernebelung über zwei Wochen lang dreimal wöchentlich verabreicht wurde. Es wurden folgende drei verschiedenen Nagetiermodelle für eine PAH (FHR-PAH, MCT-PAH und SuHx-PAH) getestet: • Fawn-hooded hypertensive Ratten (FHR): Das ist ein genetischer Rattenstamm, bei dem PAH im Alter spontan auftritt und der ähnliche PAH-Anomalien aufweist, wie sie bei IPAH bei Menschen nach 40 Wochen auftreten. • Durch Monocrotalin (MCT) induziertes PAH-Rattenmodell. • Ein SUGEN5416/chronische Hypoxie (SuHx)-Rattenmodell für PAH, bei dem die Ratten eine einmalige Injektion von SUGEN5416 erhielten und anschließend einer chronischen Hypoxie (10% O2) ausgesetzt wurden (SuHx-PAH).\n(§4) Für die MCT-PAH wurden männlichen und weiblichen SD-Ratten (Sprague-Dawley-Ratten) subkutan 60 mg/kg MCT (Sigma, Katalog: C2401) injiziert, um PAH zu induzieren. Bei der SuHx-PAH erhielten SD-Ratten eine einmalige subkutane Injektion von SUGEN5416 (20 mg/kg) und wurden drei Wochen lang einer normobaren Hypoxie ausgesetzt, bevor sie für zwei Wochen an die Raumluft zurückkehrten. Zwei Wochen nach der MCT-Injektion bzw. drei Wochen nach der SUGEN5416-Injektion (sobald PAH festgestellt wurde) wurden die Ratten nach dem Zufallsprinzip in vier Gruppen eingeteilt und erhielten zwei Wochen lang dreimal wöchentlich entweder Vehikel (Verabreichung von 1 % Methylcellulose in destilliertem Wasser oder intratracheale Vernebelung von 4 % DMSO in PBS als Negativkontrolle), SGC-CBP30 (Verabreichung von 10 mg/kg in 1 % Methylcellulose + destilliertem Wasser) oder SGC-CBP30 (intratracheale Vernebelung von 275 nmol/kg in 4 % DMSO + PBS). Einjährige männliche und weibliche FHR-Ratten mit etablierter PAH wurden in dieselben vier Gruppen wie beim MCT-Modell eingeteilt und den selben Behandlungsmethoden unterzogen. Für die Vernebelung wurden die Ratten mit 3%igem Isofluran betäubt. Ein 16-Gauge-Katheter wurde in die Luftröhre eingeführt. Ein Vernebler (Aerogen) wurde an den Katheter angeschlossen, und für jede Behandlung wurde ein Volumen von 50 µl SGC-CBP30 oder dessen Vehikel (als Negativkontrolle) verabreicht. Nach zweiwöchiger Behandlung wurde eine Rechtsherzkatheteruntersuchung bei geschlossenem Thorax durchgeführt, um folgende hämodynamischen Daten zu erfassen: Systolischer Rechtsventrikulärer Druck (RVSP), mittlerer PA-Druck (mPAP), Herzzeitvolumen (CO) und Schlagvolumen (SV). Der Gesamtwiderstand der Lunge (TPR) wurde durch Division von mPAP durch CO ermittelt. Nach der hämodynamischen Messung wurden den Ratten Gewebeproben entnommen. Die Experimente wurden gemäß den Richtlinien des Canadian Council on Animal Care durchgeführt. Alle Protokolle wurden von der institutionellen Ethikkommission für Tiere (Tierschutzausschuss der Universität Laval) geprüft und genehmigt (Protokollnummer 2019-018-2). Alle Experimente folgten den Richtlinien für die präklinische Forschung bei PAH.\n(§5) Der schwarze Balken zeigt 50 µm an. Die Daten sind als Mittelwert ± SD angegeben und die statistische Analyse wurde mit einem ungepaarten Student's t-Test durchgeführt. FHR, MCT und SU5416/chronische Hypoxie-Ratten: *P<0,05, **P<0,01 und ***P<0,001 gegenüber den mit Vehikel behandelten Gruppen. MCT-Rattenmodell: §P<0,05, §§P<0,01 und §§§P<0,001 gegenüber der unbehandelten Kontrollgruppe. • A: Schematische Darstellung des Versuchsaufbaus für die Behandlung von Fawn-hooded hypertensive Ratten (FHR) mit dem EP300/CREBBP-Inhibitor SGC-CBP30, der selektiv auf die Acetyltransferase EP300/CREBBP wirkt. […]"}, "[4]": {"system": "SuHx-PAH", "assay": "SUGEN5416/chronic hypoxia PAH rat model, right heart catheterisation and histology", "type": "in vivo, Ratten", "conditions": "SuHx-PAH rats, three times weekly for two weeks, intratracheal nebulisation 275 nmol/kg", "text": "as §3, §4, §5"}, "[5]": {"conditions": "intratracheal nebulisation 275 nmol/kg, vs vehicle"}, "[6]": {"conditions": "start three weeks after SUGEN5416"}}}
{"smiles": "COc1ccc(CCc2nc3cc(-c4c(C)noc4C)ccc3n2C[C@H](C)N2CCOCC2)cc1Cl", "note": "[SGC-CBP30, 2-[2-(3-Chloro-4-methoxyphenyl)ethyl]-5-(3,5-dimethyl-1,2-oxazol-4-yl)-1-[(S)-2-(morpholin-4-yl)propyl]-1H-benzimidazole]", "values": [{"measurement": "hyperproliferativer Phänotyp", "setting": "[1]", "result": "schwächte den hyperproliferativen Phänotyp und die Apoptoserate von PAH-FBs und PAH-SMCs deutlich ab"}, {"measurement": "Apoptoserate", "setting": "[2]", "result": "schwächte den hyperproliferativen Phänotyp und die Apoptoserate von PAH-FBs und PAH-SMCs deutlich ab"}, {"measurement": "molekulare Marker für Myokardhypertrophie", "setting": "[3]", "result": "signifikant abgeschwächt"}, {"measurement": "mediale Wanddicke der distalen PAs", "setting": "[3]; intratracheal nebulisation 275 nmol/kg", "result": "signifikant verringert"}, {"measurement": "TPR", "setting": "[3]; intratracheal nebulisation 275 nmol/kg, mPAP divided by CO", "result": "signifikanten Senkung"}, {"measurement": "CO", "setting": "[3]; [5]", "result": "verbesserten sich nach der Behandlung mit der Substanz SGC-CBP30 bei FHR-PAH und MCT-PAH signifikant"}, {"measurement": "RVSP", "setting": "[3]; [5]", "result": "signifikanten Senkung"}, {"measurement": "SV", "setting": "[3]; [5]", "result": "verbesserten sich nach der Behandlung mit der Substanz SGC-CBP30 bei FHR-PAH und MCT-PAH signifikant"}, {"measurement": "mPAP", "setting": "[3]; [5]", "result": "signifikanten Senkung"}, {"measurement": "RVSP", "setting": "[4]; [6]", "result": "signifikanten Senkung"}, {"measurement": "mPAP", "setting": "[4]; [6]", "result": "signifikanten Senkung"}, {"measurement": "CO", "setting": "[4]", "result": "verbesserte CO und SV auch bei SUGEN5416/chronischer Hypoxie-PAH signifikant"}, {"measurement": "SV", "setting": "[4]", "result": "verbesserte CO und SV auch bei SUGEN5416/chronischer Hypoxie-PAH signifikant"}, {"measurement": "mediale Wanddicke der distalen PAs", "setting": "[4]", "result": "signifikant verringert"}, {"measurement": "TPR", "setting": "[4]; mPAP divided by CO", "result": "signifikanten Senkung"}]}
